# Source: US20120028917A1, “Use Of N-(4-((3-(2-Amino-4-Pyrimidinyl)-2-Pyridinyl)Oxy)Phenyl)-4-(4-Methyl-2-Thienyl)-1-Phthalazinamine In The Treatment Of Antimitotic Agent Resistant Cancer” (Amgen Inc., priority 2009, published 2012)
# Key:
# [1] = system: multiple human cancer xenograft models; assay: Xenograft panel, Example 3 (summary); format: in vivo, athymic nude mice; settings: all xenograft models tested; oral 3.75, 7.5 or 15 mg/kg BID 2 consecutive days per week or 3 mg/kg BID everyday
# Protocol: To investigate whether AMG 900-induced suppression of aurora kinase activity inhibits cell proliferation, the antiproliferative efficacy of AMG 900 was evaluated in-vivo in multiple human cancer xenograft models, including breast, colon, leukemia, lung, pancreatic, and uterine cancer models, grown in athymic nude mice. Mice were administered AMG 900 orally at 3.75, 7.5, or 15 mg/kg BID for 2 consecutive days per week or 3 mg/kg BID everyday for the duration of the study beginning when tumors were established. The reagents, solutions, equipment, formulation of AMG 900, tumor volume measurements and calculations were generally as described in Example 4 below.
# MDA-MB-231-Taxol-r = assay: Cell cycle DNA content assay (flow cytometry); format: cell-based; settings: Homo sapiens, 24 h, Breast, Paclitaxel-selected, read-out: EC50 @ 24 hours, ≧4N DNA content
# Protocol: (§1) MDA-MB-231(F11)-luc parent and taxol-resistant cells were seeded at a density of 250,000 cells/well in a 12-well plate in 1 mL of in the appropriate media, in duplicates. The next day cells were treated with AMG 900 or taxol over a 10-point concentration range with a final DMSO concentration of 0.1% in taxol-free media. After 24 hours, cells were harvested with 1× trypsin-EDTA and transferred to PCR tubes. Cells were centrifuged at 2000 rpm for 4 minutes and the supernatant was aspirated. Cells were fixed in 200 μL of ice cold 90% methanol and stored at −20° C. for at least 24 hours. Fixed cells were centrifuged at 2000 rpm for 4 minutes to remove 90% methanol. Cells were washed with wash buffer and stained with 200 μL of propidium iodide (PI) for 30 minutes at 4° C. in the dark. An additional 400 μL of PI was added before data acquisition. Data was acquired and analyzed by flow cytometry (LSRII). A threshold gate was applied according to +4N (same as ≧4N) DNA content based on DMSO control and low/high drug-treated groups. The data was represented as percentage of control for +4N DNA content positive populations. The +4N DNA content cellular EC50 values were assigned using 4-parameter equation. […] Flow cytometric-based cell cycle analysis was performed to measure the percentage of ≧4N DNA content or SubG1 DNA content positive cells. The dose-response curves for AMG 900 represent the drug concentration plotted against the percentage of ≧4N DNA content positive cells. The dose-response curves for taxol represent the drug concentration plotted against the percentage of SubG1 DNA content positive cells. The EC50 values were calculated by 4-parameter fit model.
# MDA-MB-231 = assay: Cell cycle DNA content assay (flow cytometry); format: cell-based; settings: Homo sapiens, 24 h; MDA-MB-231, Breast, Parent line; read-out: EC50 @ 24 hours, ≧4N DNA content
# Protocol: as §1
# MES-SA = assay: p-Histone H3 assay (ArrayScan VTi); format: cell-based; settings: Homo sapiens, 24 h, Uterine, Parent line
# Protocol: (§2) MES-SA Dx5 and MES-SA cells were plated at a density of 10,000 cells/well onto 96-well plate in complete media and cultured for 24 hours. […] Cells were washed and fixed by adding 100 μL of 2× formaldehyde fixation buffer for 10 minutes and room temperature. […] Cells were immunostained with p-histone H3 antibody (5 μg/mL) and incubated at room temperature for 2 hours. Cells were washed in 100 μL of wash buffer. Next, cells were incubated with a goat anti-rabbit alexa-488 conjugated antibody (1.5 μg/mL) in wash buffer supplemented with Hoechest DNA dye (1 μg/mL) and incubated at room temperature in the dark for 30 minutes. Cells were washed twice with 100 μL of wash buffer. The 96-well plates were analyzed on an ArrayScan VTi (Cellomics) using a bioapplication algorithm (TargetActivation.V2). […] Cells were then fixed and stained with p-histone H3 antibody and counterstained with a DNA dye (Hoechest). Imaging-based analysis (ArrayScan VTi) was performed to measure the percentage of p-histone H3 positive cells. The dose-response curves represent either AMG 900 or taxol concentrations plotted against p-Histone H3 positive cells as a percentage of DMSO-treated control (POC). The EC50 values were calculated by 4-parameter fit model.
# MES-SA Dx5 = assay: p-Histone H3 assay (ArrayScan VTi); format: cell-based; settings: Homo sapiens, 24 h; MES-SA Dx5, Uterine, Doxorubicin-selected, P-gp overexpressing
# Protocol: as §2
# T47D = assay: Antiproliferative assay (ArrayScan VTi); format: cell-based; settings: Homo sapiens; T47D (Breast); 24 h treatment, then 48 h without compound
# Protocol: (§3) Tumor cells were seeded in a Packard View 96-well plate in 100 μL of appropriate complete media at a density of 3000 or 5000 cells/well depending on the cell line growth kinetics (broadly defined as slow vs. fast). All dilutions were performed using Biomek FX workstation. The next day cells were treated with AMG 900 (11-point dose range 0.156 to 0.0003 μM) with a final DMSO concentration of 0.12% in media. After 24 hours, the media containing compound was removed and the cells were washed with complete media. The cells were then incubated in 100 μL of fresh complete media (without compound) for 48 hours. After 48 hours, the cells were fixed by adding 100 μL of fixation buffer to 100 μL of complete media. The cells were incubated at room temperature for 10 minutes. The fixation buffer was aspirated and the cells were then permeabilized in 100 μL wash buffer for 30 minutes at room temperature followed by the addition of 100 μL of DNA stain buffer and incubated at room temperature for 30 minutes in the dark. Next, the cells were washed with 100 μL of wash buffer and stored in 100 μL 1×PBS at 4 degrees Celsius until analysis. Cellular data was attained by scanning the 96-well plates on an ArrayScan VTi imaging system (Cellomics). Quantification of individual cell nuclear area and intensity was performed based on Hoechst 33342 DNA dye fluorescence. A threshold on the nuclear area based on the DMSO-treated control well was set to quantify the number of normal size nuclei from nuclear debris and polyploidy cells. This threshold value was applied to enumerate the number of normal nuclei in six image fields/well using a magnification of 10×. The dose-concentration curves and EC50 values were calculated using a 4-parameter equation.
# HOP-62 = assay: Antiproliferative assay (ArrayScan VTi); format: cell-based; settings: Homo sapiens; HOP-62 (Lung); 24 h treatment, then 48 h without compound
# Protocol: as §3
# SW620 = assay: Antiproliferative assay (ArrayScan VTi); format: cell-based; settings: Homo sapiens, SW-620; SW620 (Colon); 24 h treatment, then 48 h without compound
# Protocol: as §3
# MCF7-p53− = assay: Antiproliferative assay (ArrayScan VTi); format: cell-based; settings: Homo sapiens; MCF7-p53− (Breast); 24 h treatment, then 48 h without compound
# Protocol: as §3
# SNU449 = assay: Antiproliferative assay (ArrayScan VTi); format: cell-based; settings: Homo sapiens, SNU-449; SNU449* (Liver), paclitaxel-resistant; 24 h treatment, then 48 h without compound
# Protocol: as §3
smiles,measurement,setting,value
"Cc1csc(-c2nnc(Nc3ccc(Oc4ncccc4-c4ccnc(N)n4)cc3)c3ccccc23)c1 [AMG 900, N-(4-((3-(2-amino-4-pyrimidinyl)-2-pyridinyl)oxy)phenyl)-4-(4-methyl-2-thienyl)-1-phthalazinamine]",tumor growth vs vehicle control,[1],significantly inhibited tumor growth
same,EC50,MDA-MB-231-Taxol-r,1 nM
same,EC50,MDA-MB-231,1 nM
same,EC50,MES-SA,< 2 nM
same,EC50,MES-SA Dx5,< 2 nM
same,EC50,T47D,5 nM
same,EC50,HOP-62,2 nM
same,EC50,SW620,2 nM
same,EC50,MCF7-p53−,3 nM
same,EC50,SNU449,2 nM
